# From patent US7534763B2 (Bristol-Myers Squibb Company, priority 2004, dated 2009)
# *1 amine or outer side, *2 acyl side, *3 side chain or, on linkers, in order; H or OH if unused. Where a SMILES comes first, the peptide text is derived from it. [ ]: non-standard residue; d: D form. The star is where a group is joined. ξ: configuration not given here. Ala(6-(2-MePh)pyridin-3-yl) = Cc1ccccc1-c1ccc(C[C@H](N)C(=O)O)cn1; Bip(2'-Et-4'-OMe) = CCc1cc(OC)ccc1-c1ccc(C[C@H](N)C(=O)O)cc1; Lactoyl(3-(imidazol-4-yl)) = O=C([C@@H](O)Cc1c[nH]cn1)*; X2 = Cc1ccccc1-c1ncc(C[C@H](N[*:1])C(=O)[*:2])cn1; Bip(2'-Me) = Cc1ccccc1-c1ccc(C[C@H](N)C(=O)O)cc1; αMePhe(2,6-F2) = C[C@](N)(Cc1c(F)cccc1F)C(=O)O; αMePhe(2-F) = C[C@](N)(Cc1ccccc1F)C(=O)O; ξαMePhe(2-F) = CC(N)(Cc1ccccc1F)C(=O)O; Thr(3ξ) = CC(O)[C@H](N)C(=O)O; αMeP = C[C@@]1(C(=O)O)CCCN1; dNMeA = CN[C@H](C)C(=O)O; ξαMeP = CC1(C(=O)O)CCCN1; Aib = CC(C)(N)C(=O)O; Moc = COC(=O)*
# Key:
# Assay type in all cases: in vivo
# [1] = test system: ob/ob mice; assay: intraperitoneal glucose tolerance test (ipGTT) after sc injection in ob/ob mice (plasma glucose, insulin); conditions: for % AUC Reduction in Plasma Glucose in an IP Glucose Tolerance Test after SC Injection of Compound: 10 nmol/kg, vs vehicle group; for effect on postprandial plasma glucose (in words): ipGTT 0-180 or 210 min; for Potency in ob/ob mice, ED50: sc injection, ipGTT, plasma glucose AUC
# Protocol: (§1) Peptides were dissolved in an appropriate vehicle at a concentration in nmol/ml equivalent to the dose that was to be administered in nmol/kg so that each mouse would receive the same volume/weight of dosing solution. Male C57BL/6J-ob/ob mice (10 weeks old) were randomized into groups of 6 mice per group based on fed plasma glucose and body weight. After an overnight fast, mice were weighed and placed in the experimental lab. After 30 min in the environment, the mice were bled via tail tip at −30 min and immediately injected subcutaneously (sc) with vehicle or the peptide dissolved in vehicle (0.1 ml solution/100 g body weight). At time 0 the mice were bled and then injected intraperitoneally with 50% glucose (2 g/kg) to initiate the intraperitoneal glucose tolerance test (ipGTT). The mice were bled 30, 60, 120 and 180 min after the glucose injection. Blood samples were drawn into potassium EDTA, placed on ice during the study and subsequently centrifuged for 10 min at 3000 rpm at 4° C. Plasma samples were diluted 11-fold for glucose analysis in the Cobas System. Another 5 μl plasma sample was diluted 5-fold with 20 μl of Sample Diluent (Insulin ELISA assay kit, Crystal Chem Inc.) and stored at −20° C. for subsequent analysis using the Ultra Sensitive Mouse Insulin ELISA kit (Crystal Chem Inc.).
# [2] = Dog pharmacokinetic study (iv and sc, solution vehicles); conditions: vehicle propylene glycol/pH 7.4 phosphate buffer (1:1); for AUC: male, beagle, dog, plasma, sc, 67 ug/kg, Table II, read-out: Exposure in dogs (sc@67 μg/kg)
# Protocol: The pharmacokinetic parameters of the compound of SEQ ID NO:9 were determined in male beagle dogs (n=4, 14±1 kg). Following an overnight fast, each animal received the compound of SEQ ID NO:9 either as an intravenous bolus via femoral vein (67 μg/kg) or by subcutaneous injection given at near the shoulder blades (67 μg/kg). Each animal received both intravenous and subcutaneous doses with a one-week washout between doses following a crossover design. […] Serial blood samples were collected in EDTA-containing microcentrifuge tubes at predose, 0.083, 0.25, 0.5, 0.75, 1, 2, 4, 6, 8, 24, and 30 hours post-dose after intravenous administration; at predose, 0.25, 0.5, 0.75, 1, 2, 4, 6, 8, 24, and 30 hours post-dose after subcutaneous administration. Approximately 0.3 mL of blood was collected at each time point. Blood samples were immediately centrifuged at 4° C. The obtained plasma was frozen with dry ice and stored at −20° C. Plasma drug levels were determined using the LC-MS/MS assay described above.
# Plasma samples from in vivo dog study were prepared for analysis by precipitating plasma proteins with two volumes of acetonitrile containing an internal standard. The samples were vortex mixed and removed the precipitated proteins by centrifugation. The resulting supernatants were transferred to a 96-well plate and 10 μL were injected for analysis. Samples were prepared with the Packard Multiprobe II and Quadra 96 Liquid Handling System.
# The HPLC system consisted of two Shimadzu LC10AD pumps (Columbia, Md.), a CTC PAL autosampler (Leap Technologies, Switzerland). The column used was a YMC Hydrosphere C18 (2.0×50 mm, 3 μm) (YMC, Inc., Milford, Ma.). The column temperature was maintained at 50° C. and the flow rate was 0.3 mL/minute. The mobile phase A consisted of 10 mM ammonium formate and 0.1% formic acid in water and mobile phase B consisted of 0.1% formic acid in acetonitrile. The initial mobile phase composition was 5% B, and remained at 5% B for one minute to equilibrate the column. The composition was ramped to 95% B over two minutes and held there for one additional minute. The mobile phase was then returned to initial conditions in one minute. Total analysis time was five minutes. A switching valve was used. The eluents between 0-1 minute were diverted to the waste.
# The HPLC was interfaced to a Sciex API 4000 mass spectrometer, (Applied Biosystems, Foster City, Calif.) and was equipped with a TurboIonspray ionization source. Ultra high purity nitrogen was used as the nebulizing and turbo gas. The temperature of turbo gas was set at 300° C. and the interface heater was set at 60° C. Data acquisition utilized selected reaction monitoring (SRM). Ions representing the (M+2H)^2+ species for the compound of SEQ ID NO:9, and (M+2H)^2+ for BMS-501143 (IS) were selected in Q1 and were collisionally dissociated with high purity nitrogen at a pressure of 3.5×10^−3torr to form specific product ions which were subsequently monitored by Q3.
# The standard curve concentrations, ranging from 1 to 1000 nM and from 4 to 5000 nM, were used for the in vivo samples obtained from low and high doses, respectively. The curves were fitted with a quadratic regression weighted by reciprocal […]. Standards were analyzed in duplicate. Quality control (QC) samples, prepared in blank matrix at the same concentrations as the standard were also analyzed in each analytical set. For the compound of SEQ ID NO:9, the calculated concentrations of more than 80% of the QCs were within 20% of nominal concentration, indicating acceptable assay performance.
# The compound of SEQ ID NO:9 plasma concentration vs. time data were analyzed by noncompartmental methods using the […]™ software program. The Cmax and Tmax values were recorded directly from experimental observations. The AUC0-n and AUCtot values were calculated using a combination of linear and log trapezoidal summations. […]
# [3] = Exposure during ipGTT in ob/ob mice; conditions: sc
# Protocol: as §1
Compound,% AUC Reduction in Plasma Glucose in an IP Glucose Tolerance Test after SC Injection of Compound ([1]; ob/ob mice),"effect on postprandial plasma glucose (in words) ([1]; ob/ob mice, sc)",AUC [2],Exposure/dose during ipGTT in ob/ob mice [3],also measured
"CCc1cc(OC)ccc1-c1ccc(C[C@H](NC(=O)[C@H](CC(=O)O)NC(=O)[C@H](CO)NC(=O)[C@@H](NC(=O)[C@](C)(Cc2ccccc2F)NC(=O)[C@@H](NC(=O)CNC(=O)[C@H](CCC(=O)O)NC(=O)C(C)(C)NC(=O)[C@@H](N)Cc2c[nH]cn2)C(C)O)C(C)O)C(=O)N[C@@H](Cc2ccc(-c3ccccc3C)cc2)C(N)=O)cc1 (some centres unmarked) [Compound I, reference compound] (H-H[Aib]EG[Thr(3ξ)][αMePhe(2-F)][Thr(3ξ)]SD[Bip(2'-Et-4'-OMe)][Bip(2'-Me)]-NH2)","−15% (p = 0.247, NS)",decreasing in a dose-dependent manner,0.089 µM·h,22 nM * h/nmol/kg,"Potency in ob/ob mice, ED50 [1]: ED50 = 50 nmoles/kg; Potency in ob/ob mice, ED50 ([1]; listed as compound I): 50 nmol/kg; Exposure in dogs (sc@67 μg/kg) ([2]; Table I): 0.089 µM·h"
CCc1cc(OC)ccc1-c1ccc(C[C@H](NC(=O)[C@H](CC(=O)O)NC(=O)[C@H](CO)NC(=O)[C@@H](NC(=O)C(C)(Cc2ccccc2F)NC(=O)[C@@H](NC(=O)CNC(=O)[C@H](CCC(=O)O)NC(=O)C2(C)CCCN2C(=O)[C@@H](N)Cc2c[nH]cn2)[C@@H](C)O)[C@@H](C)O)C(=O)N[C@@H](Cc2ccc(-c3ccccc3C)nc2)C(N)=O)cc1 (some centres unmarked) [SEQ ID NO: 118] (H-H[ξαMeP]EGT[ξαMePhe(2-F)]TSD[Bip(2'-Et-4'-OMe)][Ala(6-(2-MePh)pyridin-3-yl)]-NH2),−70% (p < 0.001),statistically significant decrease,4.02 µM·h,4.4 nM * h/nmol/kg,"plasma glucose AUC decrease ([1]; ob/ob mice, sc, 30 nmol/kg): 81%; Potency in ob/ob mice, ED50 [1]: 2.5 nmol/kg"
CCc1cc(OC)ccc1-c1ccc(C[C@H](NC(=O)[C@H](CC(=O)O)NC(=O)[C@H](CO)NC(=O)[C@@H](NC(=O)[C@](C)(Cc2ccccc2F)NC(=O)[C@@H](NC(=O)CNC(=O)[C@H](CCC(=O)O)NC(=O)[C@@H](C)N(C)C(=O)[C@@H](N)Cc2c[nH]cn2)[C@@H](C)O)[C@@H](C)O)C(=O)N[C@@H](Cc2ccc(-c3ccccc3C)nc2)C(N)=O)cc1 [SEQ ID NO: 119] (H-H[dNMeA]EGT[αMePhe(2-F)]TSD[Bip(2'-Et-4'-OMe)][Ala(6-(2-MePh)pyridin-3-yl)]-NH2),,,1.26 µM·h,,
CCc1cc(OC)ccc1-c1ccc(C[C@H](NC(=O)[C@H](CC(=O)O)NC(=O)[C@H](Cc2c[nH]cn2)NC(=O)[C@@H](NC(=O)[C@](C)(Cc2ccccc2F)NC(=O)[C@@H](NC(=O)CNC(=O)[C@H](CCC(=O)O)NC(=O)[C@]2(C)CCCN2C(=O)[C@@H](N)Cc2c[nH]cn2)[C@@H](C)O)[C@@H](C)O)C(=O)N[C@@H](Cc2ccc(-c3ccccc3C)nc2)C(N)=O)cc1 [SEQ ID NO: 120] (H-H[αMeP]EGT[αMePhe(2-F)]THD[Bip(2'-Et-4'-OMe)][Ala(6-(2-MePh)pyridin-3-yl)]-NH2),,,1.12 µM·h,,
CCc1cc(OC)ccc1-c1ccc(C[C@H](NC(=O)[C@H](CC(=O)O)NC(=O)[C@H](CO)NC(=O)[C@@H](NC(=O)[C@](C)(Cc2ccccc2F)NC(=O)[C@@H](NC(=O)CNC(=O)[C@H](CCC(=O)O)NC(=O)C(C)(C)NC(=O)[C@@H](N)Cc2c[nH]cn2)[C@@H](C)O)[C@@H](C)O)C(=O)N[C@@H](Cc2cnc(-c3ccccc3C)nc2)C(N)=O)cc1 [SEQ ID NO: 130] (H-H[Aib]EGT[αMePhe(2-F)]TSD[Bip(2'-Et-4'-OMe)][X2]-NH2),,,0.541 µM·h,,
CCc1cc(OC)ccc1-c1ccc(C[C@H](NC(=O)[C@H](CC(=O)O)NC(=O)[C@H](CO)NC(=O)[C@@H](NC(=O)C(C)(Cc2ccccc2F)NC(=O)[C@@H](NC(=O)CNC(=O)[C@H](CCC(=O)O)NC(=O)C2(C)CCCN2C(=O)[C@H](Cc2c[nH]cn2)NC(=O)OC)[C@@H](C)O)[C@@H](C)O)C(=O)N[C@@H](Cc2ccc(-c3ccccc3C)nc2)C(N)=O)cc1 (some centres unmarked) [SEQ ID NO: 139] (Moc-H[ξαMeP]EGT[ξαMePhe(2-F)]TSD[Bip(2'-Et-4'-OMe)][Ala(6-(2-MePh)pyridin-3-yl)]-NH2),−63% (p < 0.01),,1.6 µM·h,,
"CCc1cc(OC)ccc1-c1ccc(C[C@H](NC(=O)[C@H](CC(=O)O)NC(=O)[C@H](CO)NC(=O)[C@@H](NC(=O)[C@](C)(Cc2c(F)cccc2F)NC(=O)[C@@H](NC(=O)CNC(=O)[C@H](CCC(=O)O)NC(=O)[C@]2(C)CCCN2C(=O)[C@H](Cc2c[nH]cn2)NC(=O)OC)[C@@H](C)O)[C@@H](C)O)C(=O)N[C@@H](Cc2ccc(-c3ccccc3C)nc2)C(N)=O)cc1 [SEQ ID NO: 140] (Moc-H[αMeP]EGT[αMePhe(2,6-F2)]TSD[Bip(2'-Et-4'-OMe)][Ala(6-(2-MePh)pyridin-3-yl)]-NH2)",,,0.283 µM·h,,
CCc1cc(OC)ccc1-c1ccc(C[C@H](NC(=O)[C@H](CC(=O)O)NC(=O)[C@H](CO)NC(=O)[C@@H](NC(=O)[C@](C)(Cc2ccccc2F)NC(=O)[C@@H](NC(=O)CNC(=O)[C@H](CCC(=O)O)NC(=O)[C@@H](C)NC(=O)[C@@H](N)Cc2c[nH]cn2)[C@@H](C)O)[C@@H](C)O)C(=O)N[C@@H](Cc2ccc(-c3ccccc3C)nc2)C(N)=O)cc1 [SEQ ID NO: 149] (H-H[dA]EGT[αMePhe(2-F)]TSD[Bip(2'-Et-4'-OMe)][Ala(6-(2-MePh)pyridin-3-yl)]-NH2),,,0.94 µM·h,,
CCc1cc(OC)ccc1-c1ccc(C[C@H](NC(=O)[C@H](CC(=O)O)NC(=O)[C@H](CO)NC(=O)[C@@H](NC(=O)[C@](C)(Cc2ccccc2F)NC(=O)[C@@H](NC(=O)CNC(=O)[C@H](Cc2c[nH]cn2)NC(=O)C(C)(C)NC(=O)[C@@H](N)Cc2c[nH]cn2)[C@@H](C)O)[C@@H](C)O)C(=O)N[C@@H](Cc2ccc(-c3ccccc3C)nc2)C(N)=O)cc1 [SEQ ID NO: 150] (H-H[Aib]HGT[αMePhe(2-F)]TSD[Bip(2'-Et-4'-OMe)][Ala(6-(2-MePh)pyridin-3-yl)]-NH2),,,0.979 µM·h,,
CCc1cc(OC)ccc1-c1ccc(C[C@H](NC(=O)[C@H](CC(=O)O)NC(=O)[C@H](Cc2c[nH]cn2)NC(=O)[C@@H](NC(=O)C(C)(Cc2ccccc2F)NC(=O)[C@@H](NC(=O)CNC(=O)[C@H](CCC(=O)O)NC(=O)C2(C)CCCN2C(=O)[C@@H](O)Cc2c[nH]cn2)[C@@H](C)O)[C@@H](C)O)C(=O)N[C@@H](Cc2ccc(-c3ccccc3C)nc2)C(N)=O)cc1 (some centres unmarked) [SEQ ID NO: 151] ({Lactoyl(3-(imidazol-4-yl))}-[ξαMeP]EGT[ξαMePhe(2-F)]THD[Bip(2'-Et-4'-OMe)][Ala(6-(2-MePh)pyridin-3-yl)]-NH2),,statistically significant decrease,,16 nM * h/nmol/kg,
